In patent US8871753B2, “Macrocyclic compounds and their use as kinase inhibitors” (Incyte Corporation, priority 2008, dated 2014) one finds IC50 data, which are given here for 17 compounds.

Assay [1] concerns the target T1, human JAK1 (a.a. 837-1142) (Homo sapiens, UniProt P23458).
T1 construct: human JAK1 (a.a. 837-1142); His tag (N); made in house; host or cells: insect cells (baculovirus)
Nature of the assay: In vitro JAK kinase assay (HTRF, phosphorylation of a biotinylated peptide), JAK1. The following applies: Table D1; read-out: JAK1 IC50. Type of assay: biochemical. How it is done: (§1) The catalytic activity of JAK1, JAK2 or JAK3 was assayed by measuring the phosphorylation of a biotinylated peptide. The phosphorylated peptide was detected by homogenous time resolved fluorescence (HTRF). […] The ATP concentration in the reactions was 90 μM for JAK1, 30 μM for JAK2 and 3 μM for JAK3. Reactions were carried out at room temperature for 1 hr and then stopped with 20 μL 45 mM EDTA, 300 nM SA-APC, 6 nM Eu-Py20 in assay buffer (Perkin Elmer, Boston, Mass.). Binding to the Europium labeled antibody took place for 40 minutes and HTRF signal was measured on a Fusion plate reader (Perkin Elmer, Boston, Mass.).
(§2) The catalytic activity of JAK1, JAK2 or JAK3 was assayed by measuring the phosphorylation of a biotinylated peptide. The phosphorylated peptide was detected by homogenous time resolved fluorescence (HTRF). […] Reactions were carried out at room temperature for 1 hr and then stopped with 20 μL 45 mM EDTA, 300 nM SA-APC, 6 nM Eu-Py20 in assay buffer (Perkin Elmer, Boston, Mass.). Binding to the Europium labeled antibody took place for 40 minutes and HTRF signal was measured on a Fusion plate reader (Perkin Elmer, Boston, Mass.).

Assay [2] deals with T2, human JAK2 (a.a. 828-1132) (Homo sapiens, UniProt O60674).
T2 construct: JAK2 (a.a. 828-1132); His tag (N); made in house; host or cells: insect cells (baculovirus)
T2 sequence (O60674 828-1132): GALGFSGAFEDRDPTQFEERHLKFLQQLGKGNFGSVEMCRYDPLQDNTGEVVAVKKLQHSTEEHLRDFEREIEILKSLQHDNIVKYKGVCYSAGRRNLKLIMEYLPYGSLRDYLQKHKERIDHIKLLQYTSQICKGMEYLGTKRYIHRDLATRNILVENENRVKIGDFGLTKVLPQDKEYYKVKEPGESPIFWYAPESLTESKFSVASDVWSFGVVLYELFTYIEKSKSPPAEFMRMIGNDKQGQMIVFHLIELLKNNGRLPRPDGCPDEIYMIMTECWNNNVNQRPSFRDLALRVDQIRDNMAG
Nature of the assay: In vitro JAK kinase assay (HTRF, phosphorylation of a biotinylated peptide), JAK2. Type of assay: biochemical. To be noted: Table D1. As to the method:
as §1, §2

The IC50 is the concentration that gives 50% inhibition.

Molecules are shown by their SMILES.

T1 sequence (P23458 849-1154): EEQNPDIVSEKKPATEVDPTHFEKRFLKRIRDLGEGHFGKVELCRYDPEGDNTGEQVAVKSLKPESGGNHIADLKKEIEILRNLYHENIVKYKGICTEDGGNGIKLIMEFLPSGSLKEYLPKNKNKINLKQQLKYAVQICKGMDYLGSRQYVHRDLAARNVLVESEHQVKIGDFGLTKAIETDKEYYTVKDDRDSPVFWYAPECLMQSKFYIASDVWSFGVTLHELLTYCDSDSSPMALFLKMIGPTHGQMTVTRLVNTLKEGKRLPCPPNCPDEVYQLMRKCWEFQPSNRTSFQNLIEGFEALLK

With `O=C(C[C@@H]1CCN(C(=O)c2nccs2)C1)Nc1ccc2cc1CCc1cncc(c1)Nc1ncc(Cl)c(n1)N2` [Example D125, N-[6-Chloro-2,4,8,18,22-pentaazatetracyclo[14.3.1.1(3,7).1(9,13)]docosa-1(20),3(22),4,6,9(21),10,12,16,18-nonaen-12-yl]-2-[(3S)-1-(1,3-thiazol-2-ylcarbonyl)pyrrolidin-3-yl]acetamide bis(trifluoroacetate)], the IC50 in assay [1] stood at 0.034 µM. For `Cn1cncc1C(=O)N1CC[C@@H](CC(=O)Nc2ccc3cc2CCc2cncc(c2)Nc2ncc(Cl)c(n2)N3)C1` [Example D126, N-[6-Chloro-2,4,8,18,22-pentaazatetracyclo[14.3.1.1(3,7).1(9,13)]docosa-1(20),3(22),4,6,9(21),10,12,16,18-nonaen-12-yl]-2-{(3S)-1-[(1-methyl-1H-imidazol-5-yl)carbonyl]pyrrolidin-3-yl}acetamide tris(trifluoroacetate)], in assay [1], the IC50 was 0.098 µM. In the case of `Cn1cc(C(=O)N2CC[C@@H](CC(=O)Nc3ccc4cc3CCc3cncc(c3)Nc3ncc(Cl)c(n3)N4)C2)cn1` [Example D122, N-[6-Chloro-2,4,8,18,22-pentaazatetracyclo[14.3.1.1(3,7).1(9,13)]docosa-1(20),3(22),4,6,9(21),10,12,16,18-nonaen-12-yl]-2-{(3S)-1-[(1-methyl-1H-pyrazol-4-yl)carbonyl]pyrrolidin-3-yl}acetamide bis(trifluoroacetate)], the IC50 in assay [1] was 0.043 µM; in assay [2], 0.5 µM. `O=C(C[C@H]1CCN(C(=O)c2c[nH]nn2)C1)Nc1ccc2cc1CCc1cncc(c1)Nc1ncc(Cl)c(n1)N2` [Example D129-a, N-[6-Chloro-2,4,8,18,22-pentaazatetracyclo[14.3.1.1(3,7).1(9,13)]docosa-1(20),3(22),4,6,9(21),10,12,16,18-nonaen-12-yl]-2-[(3R)-1-(1H-1,2,3-triazol-4-ylcarbonyl)pyrrolidin-3-yl]acetamide bis(trifluoroacetate)]: the IC50 came out at 0.015 µM in assay [1] and 0.084 µM in assay [2].

With `N#Cc1ccc(NC(=O)N2CC[C@H](CC(=O)Nc3ccc4cc3CCc3cncc(c3)Nc3ncc(Cl)c(n3)N4)C2)cc1` [Example D98, (3R)-3-(2-{[6-Chloro-2,4,8,18,22-pentaazatetracyclo[14.3.1.1(3,7).1(9,13)]docosa-1(20),3(22),4,6,9(21),10,12,16,18-nonaen-12-yl]amino}-2-oxoethyl)-N-(4-cyanophenyl)pyrrolidine-1-carboxamide bis(trifluoroacetate)], the IC50 in assay [1] worked out at 0.012 µM; in assay [2] it was 0.122 µM. Regarding `O=C(C[C@@H]1CCN(C(=O)c2cc[nH]n2)C1)Nc1ccc2cc1CCc1cncc(c1)Nc1ncc(Cl)c(n1)N2` [Example D134, N-[6-Chloro-2,4,8,18,22-pentaazatetracyclo[14.3.1.1(3,7).1(9,13)]docosa-1(20),3(22),4,6,9(21),10,12,16,18-nonaen-12-yl]-2-[(3S)-1-(1H-pyrazol-3-ylcarbonyl)pyrrolidin-3-yl]acetamide bis(trifluoroacetate)], the IC50 in assay [1] was determined as 0.044 µM; in assay [2], 0.357 µM. `O=C(C[C@@H]1CCN(C(=O)Nc2cccnc2)C1)Nc1ccc2cc1CCc1cncc(c1)Nc1ncc(Cl)c(n1)N2` [Example D117, (3S)-3-(2-{[6-Chloro-2,4,8,18,22-pentaazatetracyclo[14.3.1.1(3,7).1(9,13)]docosa-1(20),3(22),4,6,9(21),10,12,16,18-nonaen-12-yl]amino}-2-oxoethyl)-N-pyridin-3-ylpyrrolidine-1-carboxamide tris(trifluoroacetate)]: the IC50 in assay [1] worked out at 0.039 µM; in assay [2], 0.392 µM.

Take `Cc1cc(C(=O)N2CC[C@H](CC(=O)Nc3ccc4cc3CCc3cncc(c3)Nc3ncc(Cl)c(n3)N4)C2)no1` [Example D109, N-[6-Chloro-2,4,8,18,22-pentaazatetracyclo[14.3.1.1(3,7).1(9,13)]docosa-1(20),3(22),4,6,9(21),10,12,16,18-nonaen-12-yl]-2-{(3R)-1-[(5-methylisoxazol-3-yl)carbonyl]pyrrolidin-3-yl}acetamide bis(trifluoroacetate)]: the values for the IC50 in assay [1] and in assay [2] were 0.016 µM and 0.189 µM, respectively. `O=C(C[C@@H]1CCN(C(=O)Nc2ccc(F)cc2)C1)Nc1ccc2cc1CCc1cncc(c1)Nc1ncc(Cl)c(n1)N2` [Example D118, (3S)-3-(2-{[6-Chloro-2,4,8,18,22-pentaazatetracyclo[14.3.1.1(3,7).1(9,13)]docosa-1(20),3(22),4,6,9(21),10,12,16,18-nonaen-12-yl]amino}-2-oxoethyl)-N-(4-fluorophenyl)pyrrolidine-1-carboxamide bis(trifluoroacetate)]: the figures for the IC50 in assay [1] and in assay [2] were 0.012 µM and 0.236 µM, respectively. With `O=C(C[C@H]1CCN(C(=O)c2cc[nH]n2)C1)Nc1ccc2cc1CCc1cncc(c1)Nc1ncc(Cl)c(n1)N2` [Example D130, N-[6-Chloro-2,4,8,18,22-pentaazatetracyclo[14.3.1.1(3,7).1(9,13)]docosa-1(20),3(22),4,6,9(21),10,12,16,18-nonaen-12-yl]-2-[(3R)-1-(1H-pyrazol-3-ylcarbonyl)pyrrolidin-3-yl]acetamide bis(trifluoroacetate)], the IC50 in assay [1] is 0.023 µM. Take `CS(=O)(=O)N1CC[C@H](CC(=O)Nc2ccc3cc2CCc2cncc(c2)Nc2ncc(Cl)c(n2)N3)C1` [Example D112, N-[6-Chloro-2,4,8,18,22-pentaazatetracyclo[14.3.1.1(3,7).1(9,13)]docosa-1(20),3(22),4,6,9(21),10,12,16,18-nonaen-12-yl]-2-[(3R)-1-(methylsulfonyl)pyrrolidin-3-yl]acetamide bis(trifluoroacetate)]: the IC50 in assay [1] was determined as 0.0099 µM; in assay [2], 0.142 µM. As to `O=C(C[C@@H]1CCN(C(=O)c2cn[nH]c2)C1)Nc1ccc2cc1CCc1cncc(c1)Nc1ncc(Cl)c(n1)N2` [Example D133, N-[6-Chloro-2,4,8,18,22-pentaazatetracyclo[14.3.1.1(3,7).1(9,13)]docosa-1(20),3(22),4,6,9(21),10,12,16,18-nonaen-12-yl]-2-[(3S)-1-(1H-pyrazol-4-ylcarbonyl)pyrrolidin-3-yl]acetamide bis(trifluoroacetate)], the IC50 was found to be 0.073 µM in assay [1] and 0.9 µM in assay [2]. With `O=C1c2ccccc2C(=O)N1CCS(=O)(=O)Nc1ccc2cc1CCc1cncc(c1)Nc1ncc(Cl)c(n1)N2` [Example D210, N-[6-Chloro-2,4,8,18,22-pentaazatetracyclo[14.3.1.1(3,7).1(9,13)]docosa-1(20),3(22),4,6,9(21),10,12,16,18-nonaen-12-yl]-2-(1,3-dioxo-1,3-dihydro-2H-isoindol-2-yl)ethanesulfonamide bis(trifluoroacetate)], the IC50 is 0.001 µM in assay [1] and 0.014 µM in assay [2]. For the compound `O=C(C[C@@H]1CCN(C(=O)Nc2cccc(F)c2)C1)Nc1ccc2cc1CCc1cncc(c1)Nc1ncc(Cl)c(n1)N2` [Example D119, (3S)-3-(2-{[6-Chloro-2,4,8,18,22-pentaazatetracyclo[14.3.1.1(3,7).1(9,13)]docosa-1(20),3(22),4,6,9(21),10,12,16,18-nonaen-12-yl]amino}-2-oxoethyl)-N-(3-fluorophenyl)pyrrolidine-1-carboxamide bis(trifluoroacetate)], the figures for the IC50 in assay [1] and in assay [2] were 0.01 µM and 0.198 µM, respectively. Consider `Cc1cc(C(=O)N2CC[C@@H](CC(=O)Nc3ccc4cc3CCc3cncc(c3)Nc3ncc(Cl)c(n3)N4)C2)no1` [Example D124, N-[6-Chloro-2,4,8,18,22-pentaazatetracyclo[14.3.1.1(3,7).1(9,13)]docosa-1(20),3(22),4,6,9(21),10,12,16,18-nonaen-12-yl]-2-{(3S)-1-[(5-methylisoxazol-3-yl)carbonyl]pyrrolidin-3-yl}acetamide bis(trifluoroacetate)], for which, in assay [1], the IC50 was determined as 0.016 µM.

In the case of `Cc1oncc1C(=O)N1CC[C@@H](CC(=O)Nc2ccc3cc2CCc2cncc(c2)Nc2ncc(Cl)c(n2)N3)C1` [Example D123, N-[6-Chloro-2,4,8,18,22-pentaazatetracyclo[14.3.1.1(3,7).1(9,13)]docosa-1(20),3(22),4,6,9(21),10,12,16,18-nonaen-12-yl]-2-{(3S)-1-[(5-methylisoxazol-4-yl)carbonyl]pyrrolidin-3-yl}acetamide bis(trifluoroacetate)], in assay [1], the IC50 came out at 0.05 µM.

In the case of `O=C(C[C@@H]1CCCN(c2nc3cccnc3o2)C1)Nc1ccc2cc1CCc1cncc(c1)Nc1ncc(Cl)c(n1)N2` [Example D213, N-[6-Chloro-2,4,8,18,22-pentaazatetracyclo[14.3.1.1(3,7).1(9,13)]docosa-1(20),3(22),4,6,9(21),10,12,16,18-nonaen-12-yl]-2-[(3S)-1-[1,3]oxazolo[5,4-b]pyridin-2-ylpiperidin-3-yl]acetamide tris(trifluoroacetate)], the IC50 in assay [1] stood at 0.011 µM.
